From patent US11690816B2, “Unit doses for immediate release of GHB or of one of the therapeutically acceptable salts thereof, administered orally, and the use thereof to maintain alcohol abstinence” (DEBREGEAS ET ASSOCIES PHARMA, priority 2016, dated 2023)

Tests used:
[1] = patients with moderate or severe liver disease, same administered dose; cited from earlier work
[2] = AUC and CMax values dependent on the doses used; conditions: human, in vivo, oral
From the text: The applicant has found the following AUC and CMax values, which are dependent on the doses used, for doses of 0.37 g, 0.75 g, 1.25 g and 1.75 g: […]

[3] = system: alcohol-dependent patients; test: phase IIb/III clinical trial, maintaining of alcohol abstinence (PDA, TAC, HDD); type: in vivo, human
Protocol: The following doses were examined: • 0.75 g sodium oxybate three times daily—i.e. 2.25 g per day (99 patients) • 1.25 g sodium oxybate three times daily—i.e. 3.75 g per day (99 patients) • 1.75 g sodium oxybate three times daily—i.e. 5.25 g per day (99 patients) • 2.25 g sodium oxybate three times daily—i.e. 6.75 g per day (100 patients) • Placebo group (99 patients)
The unit doses, packaged in sachets, were administered via oral route in solid form, more particularly in the form of granules.
Efficacy was measured via percentage days of abstinence (PDA), reduced daily intake of alcohol (TAC) and the number of heavy drinking days (HDD). It was sought to analyse the correlation between efficacy of treatment and dose in mg/kg/d. In this respect the conversion to mg/kg/d was made using the following formula: unit dose in g of sodium oxybate×3/patient weight.
In the remainder of the present description, reference is made to two categories of alcoholic patients: • patients with mild to moderate alcohol dependence; • patients with severe to very severe alcohol dependence.

Row | SMILES | increase of the main pharmacokinetic parameters compared with patients not suffering from liver disease [1] | AUC(0-t) ([2]; 0.37 g dose) [ng·h/mL] | Cmax ([2]; 0.37 g dose) [ng/mL] | AUC(0-t) ([2]; 0.75 g dose) [ng·h/mL] | Cmax ([2]; 0.75 g dose) [ng/mL] | AUC(0-t) ([2]; 1.25 g dose) [ng·h/mL] | Cmax ([2]; 1.25 g dose) [ng/mL] | AUC(0-t) ([2]; 1.75 g dose) [ng·h/mL] | Cmax ([2]; 1.75 g dose) [ng/mL] | efficacy as share of the efficacy of the optimal dose ([3]; mild or moderate alcohol dependence, doses higher than 1.25 g) | unit dose of optimum efficacy (statistical models) ([3]; mildly or moderately alcohol-dependent patients without liver disease, three times daily) [g] | side effects ([3]; severe or very severe alcohol dependence without liver disease, above 1.75 g three times daily) | optimum unit dose (polynomial regression models) ([3]; severe or very severe alcohol dependence, without liver disease, three times daily) | efficacy lower than that of the optimal dose ([3]; severe or very severe alcohol dependence, doses lower than 1.25 g or higher than 1.75 g)
1 | O=C(O)CCCO [gamma-hydroxybutyric acid] | over 120% |  |  |  |  |  |  |  |  |  |  |  |  | 
2 | O=C(O)CCCO [sodium oxybate] |  | 14800 | 11500 | 30000 | 23000 | 50000 | 39000 | 70000 | 54500 | about 20% | 0.75 | side effects become more numerous and frequent, in particular a sedative effect with nausea and marked fatigue | about 1.5 g | up to 80%
